# “Also recorded” adds a separate entry of the source. No end group written: not given here.
# Columns and labels:
# [1] = test system: various viruses, including coronaviruses; conditions: ref Kim et al., 2018; cited from earlier work
# [2] = test system: CoV-2 spike-pseudotyped virus infection of ACE2-expressing HEK 293T cells; type: cell-based, SARS-CoV-2 (spike pseudotyped lentivirus); human cells
# [3] = test system: VSVG-pseudotyped virus infection of ACE2-expressing HEK 293T cells; type: cell-based
# His-tagged rRBD = type: binding, SARS-CoV-2
# [4] = cationic, 41 amino acids; ref Sawai et al., 2001; cited from earlier work
# RBD:ACE2 binding = type: cell-based, SARS-CoV-2 RBD; human ACE2
# [5] = ref Koeninger et al., 2020; cited from earlier work
# [6] = target: recombinant SARS-CoV-2 spike receptor-binding domain (rRBD); assay: Surface plasmon resonance; conditions: read-out: KD (abstract, rounded)
# RBD = conditions: bilayer interferometry; ref Wang et al., 2021a; cited from earlier work
Substance,antiviral effect (in words) [1],effect on CoV-2 spike-mediated infection (in words) [2],inhibition of VSVG-pseudotyped virus infection (in words) [3],ratio of hemolytic concentration to IC50 (Hemolytic activity),co-precipitation with His-RBD (in words) (His-tagged rRBD),charge [4],effect on RBD:ACE2 binding (in words) (RBD:ACE2 binding),concentration at which hemolytic activity begins [5],Kd [6],binding interaction with RBD (in words) (RBD)
"GIGDPVTCLKSGAICHPVFCPRRYKQIGTCGLPGTKCCKKP (disulfide (positions not given here)) [hBD-2, Human beta defensin 2]","interrupt viral infection of various viruses, including coronaviruses",dose-dependently decreased entry of CoV-2 spike-mediated infection; also recorded: inhibited viral entry into ACE2-expressing HEK 293T cells in a dose-dependent manner,not VSVG-mediated infection; also recorded: no inhibition,25 times,significant binding of hBD-2 to His-RBD,+6,preventing it from binding to ACE2-expressing cells; also recorded: competitively decreased RBD-ACE2 binding; also recorded: reduced RBD:ACE2 binding; also recorded: blocks spike-RBD:ACE2 binding,70 µM,~2000 nM,
LL-37,,,,,,,,,,strong binding interaction
